Results: patent US11033604B2, “Reagents and methods for treating bacterial infection” (priority 2018, dated 2021)
Positions of bridges follow the written chain, without caps; N, C: chain ends. Non-standard residues stand in square brackets, D forms with d. No end group written: not given here.

Legend:
[1] = tested on: S. aureus MN8+mCherry biofilms; assay: Fluorescence microscopy of biofilm adhesion to glass; type: cell-based, Staphylococcus aureus; conditions: 80 μM, 24 h, 37° C.
Experimental: (§1) FIG. 2. S. aureus biofilm structures become less robust when grown in the presence of designed peptide inhibitors. (A) S. aureus MN8+mCherry™ biofilms were grown on glass substrates for 24 hours and then cells were washed and fixed. Addition of peptide inhibitors (80 μM) reduced adhesion to the slide, causing cells to detach during the wash step. Images are representative of duplicate wells. (B) In S. aureus SH1000 WT biofilms grown in regular LB medium, PSM amyloid fibrils are visible as deposits in spaces between cells (left). Upon addition of the designed peptide AP90 (80 μM), no extracellular fibril deposits were observed (right).
(§2) To further investigate the ability of designed peptides to inhibit PSM amyloid formation, fluorescent (mCherry™ ) MN8 biofilms were grown in culture plates with glass bottom wells. After 24 hours at 37° C. the biofilms were gently rinsed with pipetted saline to remove unattached biomass and the remaining attached cells were fixed and imaged. […] These qualitative results are in good agreement with the quantitative results obtained for amyloid inhibition in FIG. 1B. Addition of anti-α-sheet peptides triggered a significant reduction in PSM amyloid formation as measured by ThT fluorescence and also served to weaken the S. aureus biofilms by reducing the PSM amyloid fibril content of the extracellular matrix. […]

[2] = tested on: Escherichia coli (EC); assay: Crystal violet biofilm assay; type: cell-based
From the text: (§3) Furthermore, these same inhibitors are active against EC, SE, and SM.

[3] = tested on: Streptococcus mutans (SM); assay: Crystal violet biofilm assay; type: cell-based
From the text: as §3

[4] = tested on: Staphylococcus epidermidis (SE); assay: Crystal violet biofilm assay; type: cell-based
From the text: as §3

[5] = tested on: Pseudomonas aeruginosa (PA); assay: Crystal violet biofilm assay; type: cell-based
From the text: as §3

[6] = biological target: T1, FapC (Pseudomonas aeruginosa, UniProt Q9I2F0); assay: FapC in vitro ThT aggregation assay; type: biochemical, P. aeruginosa; conditions: 0.2 mg/mL FapC, 37° C.
T1 sequence (Q9I2F0 25-340): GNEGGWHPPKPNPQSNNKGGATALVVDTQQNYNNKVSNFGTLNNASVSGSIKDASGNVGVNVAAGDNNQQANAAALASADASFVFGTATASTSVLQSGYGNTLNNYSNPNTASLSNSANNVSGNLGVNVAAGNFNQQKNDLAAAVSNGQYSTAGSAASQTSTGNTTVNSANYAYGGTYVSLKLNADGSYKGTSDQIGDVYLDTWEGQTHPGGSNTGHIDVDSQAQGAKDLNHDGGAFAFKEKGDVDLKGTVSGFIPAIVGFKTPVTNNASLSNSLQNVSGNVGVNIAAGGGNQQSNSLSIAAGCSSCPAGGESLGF
Experimental: FIG. 15. Action of synthetic α-sheet peptides in the P. aeruginosa system. […] Error bars indicate standard deviation of the mean of at least three replicates. Significance values are p<0.05: *, p<0.01: **, p<0.001: ***.
Samples are aliquoted into 96 well plates and incubated in a plate reader at 37° C. with shaking every 5 min. As previously, the fluorescence of ThT monitors protein fibril formation in real time. Synthetic α-sheet peptides may also be added to the reaction to determine whether they inhibit FapC fibril formation, as in the case of AP90 (FIG. 15A).

[7] = tested on: S. mutans biofilm; assay: TEM of S. mutans biofilm; type: cell-based, Streptococcus mutans; conditions: 100 μM (FIG. 16)
Experimental: FIG. 16. Synthetic α-sheet peptides as a novel anti-biofilm agent for the dental pathogen, S. mutans. A) ThT fluorescence of S. mutans biofilms decreases upon addition of synthetic α-sheet peptides AP193, AP407, and AP90. […] D) synthetic α-sheet peptides added to S. mutans grown on hydroxyapatite ceramic particles led to significant decreases in ThT fluorescence.
The phenotypic effects of synthetic α-sheet peptides were determined using TEM.

[8] = tested on: S. aureus SH1000 WT biofilms; assay: TEM of biofilm extracellular fibrils; type: cell-based, Staphylococcus aureus; conditions: LB medium, 80 μM
Experimental: as §1, §2

[9] = tested on: UTI89 WT biofilms; assay: Biofilm adherence to glass slides after washing; type: cell-based, E. coli; conditions: after gentle washing
From the text: FIG. 12. […] Error bars indicate standard deviation of the mean of at least three replicates. Significance values are p<0.05: *, p<0.01: **, p<0.001: ***.
UTI89 biofilms were also cultivated in the presence of an unstructured peptide, P1, which retains a mixture of L- and D-amino acids but lacks the α-sheet secondary structure of AP193.

RGEmNlCwMNEYSGWcMnLkMGR (RGE[dM]N[dL]C[dW]MNEYSGW[dC]M[dN]L[dK]MGR; disulfide 7-16 (inferred)) [AP407, variant of AP90 with a disulfide bond]
Biofilm attachment to glass after rinsing [1]: caused nearly all of the biofilm to detach

RGEmNlSwMNEYSGWtMnLkMGR (RGEMNLSWMNEYSGWTMNLKMGR; not fully specified (residues 4, 6, 8, 16, 18, 20); printed as RGEmNlSwMNEYSGWtMnLkMGR) [AP90]
Activity against biofilm-forming bacteria (crystal violet) [2]: active | Activity against biofilm-forming bacteria (crystal violet) [3]: active | Activity against biofilm-forming bacteria (crystal violet) [4]: active | Biofilm inhibition (crystal violet, FIG. 10) [5]: inhibition | FapC fibril formation (ThT) [6]: inhibits fibril formation | Fibrillar structures in extracellular material by TEM [7]: such structures were not observed | Extracellular PSM amyloid fibril deposits by TEM [8]: amyloid fibrils could not be found

RGEmNyFwMNEYYGWtMnCkMGR (RGE[dM]N[dY]F[dW]MNEYYGW[dT]M[dN]C[dK]MGR) [AP193, hydrophobic AP90 derivative, variant to support different chemical coupling reactions]
Adherence of biofilm to glass slides [9]: far less adherent to glass slides
